# Data published in US20260262643A1, “HERBICIDAL BENZOXAZINES” (FMC CORPORATION, priority 2022, published 2026).
# Tests used:
# [1] = system: wheat; experiment: Test A preemergence; format: in vivo, Triticum aestivum; details: 0 to 100 scale
# Outline: (§1)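 Loam/sand soil; pre-em directed soil spray at planting, post-em spray at 1–2 leaf (2–10 cm). Compound in non-phytotoxic solvent + surfactant. Greenhouse 10 d; visual injury vs untreated, 0 = no effect, 100 = complete control.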
# [2] = system: kochia; experiment: Test A preemergence; format: in vivo, Bassia scoparia; details: 0 to 100 scale
# Outline: as §1
# [3] = system: foxtail, giant; experiment: Test A preemergence; format: in vivo, Setaria faberi; details: 0 to 100 scale
# Outline: as §1
# [4] = system: horseweed; experiment: Test A postemergence; format: in vivo, Erigeron canadensis; details: postemergence, 10 days
# Outline: as §1
# [5] = system: oat, wild; experiment: Test A postemergence; format: in vivo, Avena fatua; details: postemergence, 10 days
# Outline: as §1
# [6] = system: barnyardgrass; experiment: Test A preemergence; format: in vivo, Echinochloa crusgalli; details: visual injury after 10 days, 0 to 100 scale, 0 is no effect, 100 is complete control
# Outline: as §1
# [7] = system: barnyardgrass; experiment: Test A postemergence; format: in vivo, Echinochloa crusgalli; details: postemergence, 10 days
# Outline: as §1
# [8] = system: barnyardgrass; experiment: Test B flooded paddy test; format: in vivo, Echinochloa crus-galli; details: 250 g ai/ha, Flood, 13 days, 0 to 100 scale (0 no effect, 100 complete control)
# Outline: (§2)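 Flooded to 3 cm at treatment time, 2-leaf plants got the test compound applied straight into the paddy water. They then stayed under constant flood in a greenhouse for 13 days. Ratings used a 0 to 100 visual scale.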
# [9] = system: foxtail, giant; experiment: Test A postemergence; format: in vivo, Setaria faberi; details: postemergence, 10 days
# Outline: as §1
# [10] = system: pigweed, palmer; experiment: Test A preemergence; format: in vivo, Amaranthus palmeri; details: 0 to 100 scale
# Outline: as §1
# [11] = system: ragweed; experiment: Test A postemergence; format: in vivo, Ambrosia artemisiifolia; details: postemergence, 10 days
# Outline: as §1
# [12] = system: sedge, umbrella; experiment: Test B flooded paddy test; format: in vivo, Cyperus difformis; details: 250 g ai/ha, Flood, 13 days, 0 to 100 scale (0 no effect, 100 complete control)
# Outline: as §2
# [13] = system: ryegrass, Italian; experiment: Test A postemergence; format: in vivo, Lolium multiflorum; details: postemergence, 10 days
# Outline: as §1
# [14] = system: blackgrass; experiment: Test A preemergence; format: in vivo, Alopecurus myosuroides; details: 0 to 100 scale
# Outline: as §1
# [15] = system: ryegrass, Italian; experiment: Test A preemergence; format: in vivo, Lolium multiflorum; details: 0 to 100 scale
# Outline: as §1
# [16] = system: kochia; experiment: Test A postemergence; format: in vivo, Bassia scoparia; details: postemergence, 10 days
# Outline: as §1
# [17] = system: pigweed, palmer; experiment: Test A postemergence; format: in vivo, Amaranthus palmeri; details: postemergence, 10 days
# Outline: as §1
# [18] = system: soybean; experiment: Test A preemergence; format: in vivo, Glycine max; details: 0 to 100 scale
# Outline: as §1
# [19] = system: corn; experiment: Test A postemergence; format: in vivo, Zea mays; details: postemergence, 10 days
# Outline: as §1
# [20] = system: rice; experiment: Test B flooded paddy test; format: in vivo, Oryza sativa; details: 250 g ai/ha, Flood, 13 days, 0 to 100 scale (0 no effect, 100 complete control)
# Outline: as §2
# [21] = system: ragweed; experiment: Test A preemergence; format: in vivo, Ambrosia artemisiifolia; details: 0 to 100 scale
# Outline: as §1
# [22] = system: wheat; experiment: Test A postemergence; format: in vivo, Triticum aestivum; details: postemergence, 10 days
# Outline: as §1
# [23] = system: ducksalad; experiment: Test B flooded paddy test; format: in vivo, Heteranthera limosa; details: 250 g ai/ha, Flood, 13 days, 0 to 100 scale (0 no effect, 100 complete control)
# Outline: as §2
# [24] = system: oat, wild; experiment: Test A preemergence; format: in vivo, Avena fatua; details: 0 to 100 scale
# Outline: as §1
# [25] = system: corn; experiment: Test A preemergence; format: in vivo, Zea mays; details: 0 to 100 scale
# Outline: as §1
# [26] = system: blackgrass; experiment: Test A postemergence; format: in vivo, Alopecurus myosuroides; details: postemergence, 10 days
# Outline: as §1
# [27] = system: soybean; experiment: Test A postemergence; format: in vivo, Glycine max; details: postemergence, 10 days
# Outline: as §1
# [28] = system: galium; experiment: Test A postemergence; format: in vivo, Galium aparine; details: postemergence, 10 days
# Outline: as §1
# [29] = 500 g ai/ha, visual injury after 10 days, 0 is no effect, 100 is complete control
# [30] = 125 g ai/ha, 0 to 100 scale, 0 no effect, 100 complete control
# [31] = 500 g ai/ha, visual injury, 0 to 100 scale (0 no effect, 100 complete control)
structure (smiles),measurement,setting,value
Cc1cccc2c1OC(C(F)(F)F)CN2C(=O)c1ccnc(-n2cncn2)c1 (stereo not shown) [Compound 144],"Plant response rating, Wheat",[1]; 125 g ai/ha,30
same,"Plant response rating, Wheat",[1]; [29],50
same,"Plant response rating, Kochia",[2]; 125 g ai/ha,0
same,"Plant response rating, Kochia",[2]; [29],60
same,"Plant response rating, Foxtail, Giant",[3]; 125 g ai/ha,100
same,"Plant response rating, Foxtail, Giant",[3]; [29],100
same,Horseweed plant response rating,[4]; [30],0
same,"Plant response rating, Horseweed",[4]; [31],0
same,"Oat, Wild plant response rating",[5]; [30],0
same,"Plant response rating, Oat, Wild",[5]; [31],40
same,"Plant response rating, Barnyardgrass",[6]; 125 g ai/ha,50
same,"Plant response rating, Barnyardgrass",[6]; 500 g ai/ha,90
same,Barnyardgrass plant response rating,[7]; [30],20
same,"Plant response rating, Barnyardgrass",[7]; [31],90
same,"Plant response rating, Barnyardgrass",[8],0
same,"Foxtail, Giant plant response rating",[9]; [30],80
same,"Plant response rating, Foxtail, Giant",[9]; [31],90
same,"Plant response rating, Pigweed, Palmer",[10]; 125 g ai/ha,10
same,"Plant response rating, Pigweed, Palmer",[10]; [29],100
same,Ragweed plant response rating,[11]; [30],0
same,"Plant response rating, Ragweed",[11]; [31],0
same,"Plant response rating, Sedge, Umbrella",[12],60
same,"Ryegrass, Italian plant response rating",[13]; [30],50
same,"Plant response rating, Ryegrass, Italian",[13]; [31],90
same,"Plant response rating, Blackgrass",[14]; 125 g ai/ha,50
same,"Plant response rating, Blackgrass",[14]; [29],80
same,"Plant response rating, Ryegrass, Italian",[15]; 125 g ai/ha,90
same,"Plant response rating, Ryegrass, Italian",[15]; [29],100
same,Kochia plant response rating,[16]; [30],10
same,"Plant response rating, Kochia",[16]; [31],60
same,"Pigweed, Palmer plant response rating",[17]; [30],20
same,"Plant response rating, Pigweed, Palmer",[17]; [31],40
same,"Plant response rating, Soybean",[18]; 125 g ai/ha,0
same,"Plant response rating, Soybean",[18]; [29],100
same,Corn plant response rating,[19]; [30],40
same,"Plant response rating, Corn",[19]; [31],70
same,"Plant response rating, Rice",[20],0
same,"Plant response rating, Ragweed",[21]; 125 g ai/ha,0
same,"Plant response rating, Ragweed",[21]; [29],30
same,Wheat plant response rating,[22]; [30],20
same,"Plant response rating, Wheat",[22]; [31],60
same,"Plant response rating, Ducksalad",[23],65
same,"Plant response rating, Oat, Wild",[24]; 125 g ai/ha,30
same,"Plant response rating, Oat, Wild",[24]; [29],60
same,"Plant response rating, Corn",[25]; 125 g ai/ha,30
same,"Plant response rating, Corn",[25]; [29],50
same,Blackgrass plant response rating,[26]; [30],70
same,"Plant response rating, Blackgrass",[26]; [31],90
same,Soybean plant response rating,[27]; [30],100
same,"Plant response rating, Soybean",[27]; [31],100
same,Galium plant response rating,[28]; [30],70
same,"Plant response rating, Galium",[28]; [31],100
